Measurements: PubChem BioAssay AID602356 (Sanford-Burnham Center for Chemical Genomics, 2012)
Several values for one entry are separate records, joined by “and”; a condition that tells them apart may be missing. Equal entries are not always repeated. Activity calls are given as the source filed them. The rule behind the calls is not given here.

target: Neurotensin receptor type 1 (Homo sapiens) (UniProt P30989); experiment: NTR1 agonists in analog series, SAR follow-up, imaging, image-based, set 3 (AID 602356); conditions: NTR1 image-based agonist assay, cellular imaging
Sequence (P30989 whole entry, looked up): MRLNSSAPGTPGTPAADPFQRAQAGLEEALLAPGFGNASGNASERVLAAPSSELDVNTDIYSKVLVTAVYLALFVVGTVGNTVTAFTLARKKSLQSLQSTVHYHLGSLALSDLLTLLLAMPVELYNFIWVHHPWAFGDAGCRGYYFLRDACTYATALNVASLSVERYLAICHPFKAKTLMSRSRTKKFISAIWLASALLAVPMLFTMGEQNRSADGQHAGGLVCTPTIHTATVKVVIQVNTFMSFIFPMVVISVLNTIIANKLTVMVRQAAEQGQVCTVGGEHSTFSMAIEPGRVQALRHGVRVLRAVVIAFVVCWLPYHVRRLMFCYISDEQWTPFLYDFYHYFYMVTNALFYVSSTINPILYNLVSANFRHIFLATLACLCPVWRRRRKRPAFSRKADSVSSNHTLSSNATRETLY

Question: How did the EC50 turn out when COc1cc2c3nnc(-c4ccc(Cl)cc4)c-3cn(Cc3ccc(F)cc3)c2cc1OC was run?
Answer: 2.95 µM

Question: Which EC50 does the source give for CC(C)C[C@H](NC(=O)c1cn(-c2ccnc3cc(Cl)ccc23)c(-c2c(Cl)cccc2Cl)n1)C(=O)O here?
Answer: 5.17 µM

Question: For CCOc1ccc(-c2nnc3c4cc(OC)c(OC)cc4n(Cc4ccc(F)cc4)cc2-3)cc1, which EC50 is on record?
Answer: 8.05 µM

Question: Which EC50 does the source give for CCOc1ccc(-c2nnc3c4cc(OC)c(OC)cc4n(Cc4ccc(C)cc4)cc2-3)cc1 here?
Answer: 13 µM

Question: Which EC50 does the source give for COc1cc2c3nnc(-c4ccc(F)cc4)c-3cn(Cc3ccc(OC(F)(F)F)cc3)c2cc1OC here?
Answer: 12.3 µM

Question: Which EC50 does the source give for COc1cccc(OC)c1-c1cc(C(=O)N[C@@H](CC(C)C)C(=O)OC(C)(C)C)nn1-c1ccnc2cc(Cl)ccc12 here?
Answer: 1.35 µM

Question: For COc1cc2nc(C3CC3)nc(N3CCN(c4ccccc4Cl)CC3)c2cc1OC, which EC50 is on record?
Answer: 19.8 µM

Question: COc1ccc(N2CCN(c3nc(C4CCC4)nc4cc(OC)c(OC)cc34)CC2)cc1 was tested. Which EC50 did it give?
Answer: inactive

Question: With Fc1ccc(-c2nnc3c4cc5c(cc4n(Cc4ccccc4)cc2-3)OCO5)cc1 as the compound, how does the EC50 read?
Answer: 10.9 µM

Question: Cc1cccc(C)c1-c1nc(C(=O)N[C@@H](CC(C)C)C(=O)O)cn1-c1ccnc2cc(Cl)ccc12 was tested. Which EC50 did it give?
Answer: 9.23 µM

Question: With COc1cc2c3nnc(-c4ccc(F)cc4)c-3cn(CCc3ccccc3)c2cc1OC as the compound, how does the EC50 read?
Answer: inactive

Question: For CCn1cc2c(-c3ccc(OC)cc3)nnc-2c2ccccc21, which EC50 is on record?
Answer: > 80 µM (inactive)

Question: Which EC50 does the source give for Cc1ccc(Cn2cc3c(-c4ccc(C)c(C)c4)nnc-3c3cc4c(cc32)OCO4)cc1 here?
Answer: 16.4 µM

Question: For CC(C)C[C@H](NC(=O)c1cn(-c2ccnc3ccccc23)c(-c2ccccc2)n1)C(=O)O, which EC50 is on record?
Answer: > 80 µM (inactive)

Question: CCOc1cc2nc(-c3ccc(OC)c(OC)c3)nc(N3CCN(c4ccccc4)CC3)c2cc1OC was tested. Which EC50 did it give?
Answer: > 80 µM (inactive)

Question: With CCOC(=O)c1cc(-c2c(OC)cccc2OC)n(-c2ccnc3cc(Cl)ccc23)n1 as the compound, how does the EC50 read?
Answer: > 80 µM (inactive)

Question: COc1cccc(OC)c1-c1cc(C(=O)NC2(C(=O)O)C3CC4CC(C3)CC2C4)nn1-c1ccnc2cc(Cl)ccc12 (configuration not stated) was tested. Which EC50 did it give?
Answer: inactive

Question: Which EC50 does the source give for Cc1ccc(-c2nnc3c4cc5c(cc4n(Cc4ccccc4)cc2-3)OCO5)cc1C here?
Answer: 1.44 µM

Question: How did the EC50 turn out when COc1ccc(Cn2cc3c(-c4ccc(F)cc4)nnc-3c3cc(OC)c(OC)cc32)cc1 was run?
Answer: 8.11 µM

Question: Which EC50 does the source give for COc1cc2nc(Cc3ccccc3)nc(N3CCN(c4ccccc4OC)CC3)c2cc1OC here?
Answer: 13.8 µM

Question: With Fc1ccc(Cn2cc3c(-c4ccc(F)cc4)nnc-3c3cc4c(cc32)OCO4)cc1 as the compound, how does the EC50 read?
Answer: 7.29 µM

Question: Which EC50 does the source give for COc1cc2c3nnc(-c4ccc(F)cc4)c-3cn(Cc3ccc(N(C)C)cc3)c2cc1OC here?
Answer: > 80 µM (inactive)

Question: COc1ccc2c(c1)c1nnc(-c3ccc(F)cc3)c-1cn2Cc1ccc(F)cc1 was tested. Which EC50 did it give?
Answer: 13.9 µM

Question: How did the EC50 turn out when COc1ccc(-c2nnc3c4cc(OC)c(OC)cc4n(Cc4ccccc4)cc2-3)cc1 was run?
Answer: 17 µM

Question: With C=Cc1nc(N2CCN(c3ccccc3OC)CC2)c2cc(OC)c(OC)cc2n1 as the compound, how does the EC50 read?
Answer: 7.03 µM

Question: For COc1cc2c3nnc(-c4ccc(F)cc4)c-3cn(Cc3ccccc3C)c2cc1OC, which EC50 is on record?
Answer: 3.95 µM

Question: COc1cccc(OC)c1-c1cc(C(=O)NC2(C(=O)O)C3CC4CC(C3)CC2C4)nn1-c1ccc(C(=O)N(C)CCCN(C)C)cc1C(C)C (configuration not stated) was tested. Which EC50 did it give?
Answer: > 80 µM (inactive)

Question: Which EC50 does the source give for COc1cc2nc(C)nc(N3CCN(c4ccccc4OC)CC3)c2cc1OC here?
Answer: > 80 µM (inactive)

Question: Which EC50 does the source give for COc1cc2nc(C3CC3)nc(N3CCN(c4ccccc4OC)CC3)c2cc1OC here?
Answer: 2.18 µM and 1.89 µM

Question: With COc1cc2nc(C3CCC3)nc(N3CCN(c4c(C)cccc4C)CC3)c2cc1OC as the compound, how does the EC50 read?
Answer: inactive

Question: Which EC50 does the source give for COc1cc2nc(-c3ccccc3)nc(N3CCN(c4ccccc4)CC3)c2cc1OC here?
Answer: > 80 µM (inactive)

Question: With COc1ccc(-c2nnc3c4ccccc4n(Cc4ccncc4)cc2-3)cc1 as the compound, how does the EC50 read?
Answer: > 80 µM (inactive)

Question: For Cc1ccc(-c2nnc3c4cc5c(cc4n(Cc4ccccc4)cc2-3)OCO5)cc1, which EC50 is on record?
Answer: inactive

Question: For COc1cc2ncnc(N3CCN(c4ccccc4OC)CC3)c2cc1OC, which EC50 is on record?
Answer: > 80 µM (inactive)

Question: COc1ccc2nc(C3CCC3)nc(N3CCN(c4ccccc4OC)CC3)c2c1 was tested. Which EC50 did it give?
Answer: 10 µM

Question: With COc1ccc(-c2nnc3c4ccccc4n(Cc4ccc(Cl)cc4)cc2-3)cc1 as the compound, how does the EC50 read?
Answer: inactive

Question: COc1cc2nc(-c3ccccc3)nc(N3CCN(c4ccccc4F)CC3)c2cc1OC was tested. Which EC50 did it give?
Answer: > 80 µM (inactive)
